The values below come from US11384060B2, “Amide compounds and use thereof” (ALPHALA CO., LTD., priority 2017, dated 2022).

One assay concerns the target T1, glucagon receptor (GCGR) (Homo sapiens, UniProt P47871).
T1 construct: expressed in transfected cells; host or cells: CHO-K1 cells overexpressing GCGR (membrane fractions)
In words: I125-glucagon binding assay (competition, GCGR membrane fractions). As to conditions: competition with I125-glucagon 0.0625 nM, membrane fractions of GCGR overexpressed CHO-K1 cells. An outline of the steps:
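Competition of 0.0625 nM (final) I^125-glucagon for 30 min at 25° C, after 5 min compound preincubation, using 7.5 μg/well GCGR-overexpressing CHO-K1 membranes in 50 mM Tris pH 7.4, 0.5% BSA. Filtration onto PEI-coated GF/B, micro-beta counting, and non-linear regression gave IC50.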

Assay [1] addresses T2, glucagon receptor (GCGR) overexpressed CHO-K1 cells or human primary hepatocytes (Homo sapiens, UniProt P47871).
T2 construct: expressed in transfected cells; host or cells: GCGR overexpressed CHO-K1 cells or human primary hepatocytes (endogenous receptor)
In words: Glucagon cAMP inhibition assay (Cisbio cAMP Dynamic 2 HTRF). In kind it is cell-based. The settings on record: inhibition of glucagon (EC50 concentration) induced cAMP production. An outline of the steps:
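HTRF read-out of glucagon-induced cAMP, with IC50 from non-linear regression. Cells (GCGR CHO-K1 or human primary hepatocytes) in HBSS/0.1% BSA/800 nM IBMX took compound dilutions for 30 min (final DMSO 1%), then EC50-level glucagon for 30 min at room temperature, then a 60 min lysis/detection step.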
In general terms: TR-FRET usually uses a lanthanide donor and a delayed reading to cut background.

T1 sequence (P47871 26-477): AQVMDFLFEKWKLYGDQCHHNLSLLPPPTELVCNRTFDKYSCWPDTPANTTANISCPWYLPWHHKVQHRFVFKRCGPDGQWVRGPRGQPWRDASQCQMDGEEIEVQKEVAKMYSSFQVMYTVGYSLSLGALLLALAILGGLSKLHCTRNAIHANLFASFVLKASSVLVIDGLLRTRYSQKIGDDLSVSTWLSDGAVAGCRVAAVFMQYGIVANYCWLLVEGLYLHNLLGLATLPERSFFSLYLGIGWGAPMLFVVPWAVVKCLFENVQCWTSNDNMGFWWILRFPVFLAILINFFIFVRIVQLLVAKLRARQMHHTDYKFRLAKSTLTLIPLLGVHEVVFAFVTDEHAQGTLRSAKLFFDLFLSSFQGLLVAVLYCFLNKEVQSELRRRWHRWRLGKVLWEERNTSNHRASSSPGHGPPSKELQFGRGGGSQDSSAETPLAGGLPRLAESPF
T2 sequence (P47871 26-477): as above

Regarding `Cc1cc(OC[C@@H](Nc2ccc(C(=O)NCCC(=O)O)cc2)C(C)C)cc(C)c1-c1ccc(C(F)(F)F)cc1` [Compound 2-4, (S)-3-(4-((1-((2,6-dimethyl-4′-(trifluoromethyl)-[1,1′-biphenyl]-4-yl)oxy)-3-methylbutan-2-yl)amino)benzamido)propanoic Acid], the IC50 (usually the concentration that gives 50% inhibition) on glucagon receptor (GCGR) is 91 nM. In addition, the “IC50 cAMP” value in assay [1] stood at 245.8 nM.

`Cc1cc(OC[C@@H](Nc2ccc(C(=O)NCCC(=O)O)cc2)C(C)C)cc(C)c1-c1ccc(C(C)(C)C)cc1` [Compound 2-5, (S)-3-(4-((1-((4′-(tert-butyl)-2,6-dimethyl-[1,1′-biphenyl]-4-yl)oxy)-3-methylbutan-2-yl)amino)benzamido)propanoic Acid] showed an IC50 at glucagon receptor (GCGR) of 347 nM. Besides, the “IC50 cAMP” value in assay [1] turned out to be 352 nM.

For the compound `CC[C@H](C)[C@@H](COc1cc(C)c(-c2ccc(C(C)(C)C)cc2)c(C)c1)Nc1ccc(C(=O)NCCC(=O)O)cc1` [Compound 2-6, 3-(4-(((2S,3S)-1-((4′-(tert-butyl)-2,6-dimethyl-[1,1′-biphenyl]-4-yl)oxy)-3-methylpentan-2-yl)amino)benzamido)propanoic Acid], the IC50 on glucagon receptor (GCGR) stood at 67 nM. In addition, the “IC50 cAMP” value in assay [1] is given as 448 nM.

Take `CC[C@H](C)[C@@H](COc1cc(C)c(-c2cc3ccccc3o2)c(C)c1)Nc1ccc(C(=O)NCCC(=O)O)cc1` [Compound 2-7, 3-(4-(((2S,3S)-1-(4-(benzofuran-2-yl)-3,5-dimethylphenoxy)-3-methylpentan-2-yl)amino)benzamido)propanoic Acid]: at glucagon receptor (GCGR), the IC50 came out at 158 nM. Further, the “IC50 cAMP” value in assay [1] is 468 nM.

On glucagon receptor (GCGR), `CC[C@H](C)[C@@H](COc1cc(C)c(-c2ccc(OC(F)(F)F)cc2)c(C)c1)Nc1ccc(C(=O)NCCC(=O)O)cc1` [Compound 2-8, 3-(4-(((2S,3S)-1-((2,6-dimethyl-4′-(trifluoromethoxy)-[1,1′-biphenyl]-4-yl)oxy)-3-methylpentan-2-yl)amino)benzamido)propanoic Acid] had an IC50 of 627 nM. Further, the “IC50 cAMP” value in assay [1] is given as 602 nM.

Turning to `CC[C@H](C)[C@@H](COc1cc(C)c(-c2ccc(Cl)cc2Cl)c(C)c1)Nc1ccc(C(=O)NCCC(=O)O)cc1` [Compound 2-9, 3-(4-(((2S,3S)-1-((2′,4′-dichloro-2,6-dimethyl-[1,1′-biphenyl]-4-yl)oxy)-3-methylpentan-2-yl)amino)benzamido)propanoic Acid], on glucagon receptor (GCGR), the IC50 is 60 nM. Also, in assay [1], the “IC50 cAMP” value was 447.6 nM.

On glucagon receptor (GCGR), `CC[C@H](C)[C@@H](COc1cc(C)c(-c2ccc(C(F)(F)F)cc2)c(C)c1)Nc1ccc(C(=O)NCCC(=O)O)cc1` [Compound 2-10, 3-(4-(((2S,3S)-1-((2,6-dimethyl-4′-(trifluoromethyl)-[1,1′-biphenyl]-4-yl)oxy)-3-methylpentan-2-yl)amino)benzamido)propanoic Acid] came in with an IC50 of 90 nM. The “IC50 cAMP” value in assay [1] was determined as 241.4 nM.

`Cc1cc(OC[C@@H](Nc2ccc(C(=O)NCCC(=O)O)cc2)C(C)C)cc(C)c1-c1ccc(C(F)(F)F)cc1Cl` [Compound 2-11, (S)-3-(4-((1-((2′-chloro-2,6-dimethyl-4′-(trifluoromethyl)-[1,1′-biphenyl]-4-yl)oxy)-3-methylbutan-2-yl)amino)benzamido)propanoic Acid] returned an IC50 at glucagon receptor (GCGR) of 872 nM. Further, the “IC50 cAMP” value in assay [1] stood at 277.2 nM.

At glucagon receptor (GCGR), `CCCC[C@@H](COc1cc(C)c(-c2cc3ccccc3o2)c(C)c1)Nc1ccc(C(=O)NCCC(=O)O)cc1` [Compound 2-12, (S)-3-(4-((1-(4-(benzofuran-2-yl)-3,5-dimethylphenoxy)hexan-2-yl)amino)benzamido)propanoic Acid] returned an IC50 of 108 nM. For the same compound, the “IC50 cAMP” value in assay [1] was 62.8 nM.

`CCCC[C@@H](COc1cc(C)c(-c2cc3ccccc3o2)c(C)c1)Nc1ccc(C(=O)NCc2nnn[nH]2)cc1` [Compound 2-13, (S)—N-((1H-tetrazol-5-yl)methyl)-4-((1-(4-(benzofuran-2-yl)-3,5-dimethylphenoxy)hexan-2-yl)amino)benzamide]: the IC50 at glucagon receptor (GCGR) was 167 nM. In assay [1], the “IC50 cAMP” value is 148.5 nM.
